From patent publication US9085607B2, “ACH-0142684 sodium salt polymorph, composition including the same, and method of manufacture thereof” (Achillion Pharmaceuticals Inc., priority 2013, dated 2015)
Entries after “also recorded” stand apart in the source; their conditions may differ. Values belong to the molecule of their own block, whether it stands above or below them.

Columns and labels:
Format in all cases: physicochemical
[1] = Vacuum oven drying and re-analysis by PXRD for form change
Method: PXRD diffractograms were acquired using either a Bruker D8 Discovery diffractometer with a HI-STAR GADDS detector or PANalytical X′Pert Pro diffractometer on Si zero-background wafers. All diffractograms were collected using Cu Kα (45 kV/40 mA) radiation and a step size of 0.02° 2θ unless noted otherwise.
A sample of Polymorph A was dried in a vacuum oven at 55° C. overnight with a small flow of nitrogen. FIG. 1 is a graph showing the results of X-ray powder diffraction analysis of pre-dried (lower trace) and post-dried (upper trace) Polymorph A sample. FIG. 2 is a graph showing the results of differential scanning calorimetry overlay of a pre-dried (lower trace) and post-dried (upper trace) Polymorph A sample. FIG. 3 is a graph showing the results of thermogravimetric analysis of the Form A polymorph.
A small amount of Polymorph B was dried in a vacuum oven at 50° C. for 16 hours and the sample was re-analyzed by PXRD to observe if there were any form changes.

[2] = Solubility in water after temperature cycling between 40° C. and 5° C.; settings: thermodynamic from solid, cycling between 40° C. and 5° C. for 2 days
Method: (§1) The solubility of ACH-0142684 sodium salt was determined at room temperature using the following procedure. The input material (˜10 mg) was weighed into each of 12 vials, followed by addition of a solvent in multiple aliquots between 50μL to 10-mL at room temperature. Samples were visually inspected for complete dissolution after each solvent addition. The solubility of crystalline ACH-0142684 sodium salt is summarized in TABLE 1, which provides a solubility assessment of amorphous API in 12 solvents. The solubility of API-0142684 in water after temperature cycling between 40° C. and 5° C. for 2 days is ˜50 mg/ml.

[3] = Solubility assessment at room temperature by solvent aliquot addition and visual inspection; settings: thermodynamic from solid
Method: as §1

[4] = Solubility in screen solvents derived from loading in solvent and dissolution; settings: organic solvent or mixture, thermodynamic from solid
From the text: They were selected based on a diverse range of properties including dielectric constants, boiling points, and H-bonding that are important to crystallization and crystal-form discovery. The values in TABLE 2 are derived from ACH-0142684 loading in solvent and dissolution. The symbol † indicates the solubility value is found in TABLE 1.

[5] = Competitive ripening study between Polymorphs A and G; settings: slurry in 2-propanol, room temperature, sample isolated after 48 hours
Method: A competitive ripening study was conducted between Polymorphs A and G at room temperature to determine their relative stabilities. Approximately 5 mg of Polymorphs A and G were added to a 2-mL HPLC vial containing 0.5 mL of 2-propanol. The suspension was stirred at room temperature for two days. Aliquots of the slurry were filtered after 20 and 48 hours. The isolated solids were analyzed by PXRD to determine any form conversion.

[6] = Crystallization screening (temperature cycling, cooling, evaporation, vapor diffusion), form stability; settings: 48 solvents/mixtures
Method: Crystallization experiments were conducted in 48 solvents and aqueous mixtures using the following three crystallization modes:
Temperature-cycled ripening of API slurries between 5-40° C. for 48 hours;
Cooling of saturated solutions prepared at RT to 5° C. (24 hours);
Slow evaporation of saturated solutions at RT.In addition, 10 vapor diffusion experiments were also conducted (Table 4) at RT. These solvent systems were selected based on API solubility, and the miscibility and boiling points of solvents and anti-solvents.
All solid outputs from the screen were isolated and analyzed by FT-Raman spectroscopy and/or PXRD. The samples were then sorted into polymorphs based on Raman spectral match. Representative samples from each of the polymorphs were further analyzed by additional techniques (PXRD, DSC, TGA-IR, PLM, etc.) as appropriate and as sample quantity permitted.
Characterization data and more detailed discussion of the different crystal forms are summarized in the following sections. In TABLES 3 and 4, A, B, C, D, or E, etc. indicates the respective crystalline polymorph obtained. “Amorphous” indicates an amorphous solid was obtained, (-) indicates the experiment was not performed, and a blank space indicates no solid was obtained. The screening study led to one hydrated form (Polymorph A) and multiple solvated forms (Polymorph s B-E). […]

SMILES: COc1ccc2c(O[C@@H]3C[C@H]4C(=O)N[C@]5(C(=O)[N-]S(=O)(=O)C6CC6)C[C@H]5/C=C\CCCCC[C@H](CC(=O)N5CCCC(F)(F)C5)C(=O)N4C3)cc(-c3nc(C(C)C)cs3)nc2c1C.[Na+] [Polymorph B]
Form stability on drying (PXRD of dried sample) ([1]; vacuum oven at 50° C. for 16 hours): does not show any change in form but the peaks appear to be broader

SMILES: COc1ccc2c(O[C@@H]3C[C@H]4C(=O)N[C@]5(C(=O)[N-]S(=O)(=O)C6CC6)C[C@H]5/C=C\CCCCC[C@H](CC(=O)N5CCCC(F)(F)C5)C(=O)N4C3)cc(-c3nc(C(C)C)cs3)nc2c1C.[Na+] [ACH-0142684 sodium salt]
solubility at 2 days [2]: ~50 mg/mL
solubility ([3]; organic solvent or mixture, ACN): 1 to 1.2 mg/mL
solubility ([3]; organic solvent or mixture, DCM): 49 to 98 mg/mL
solubility ([3]; organic solvent or mixture, DMSO): 97 to 129 mg/mL
solubility ([3]; organic solvent or mixture, EtOAc): < 1.02 mg/mL
solubility ([3]; organic solvent or mixture, IPA): 1.1 to 1.3 mg/mL
solubility ([3]; organic solvent or mixture, MTBE): < 0.93 mg/mL
solubility ([3]; organic solvent or mixture, MeOH): 92 to 123 mg/mL
solubility ([3]; organic solvent or mixture, TFE): 100 to 133 mg/mL
solubility ([3]; organic solvent or mixture, THF): 9.2 to 18.4 mg/mL
solubility ([3]; organic solvent or mixture, Toluene): < 1.04 mg/mL
solubility ([3]; organic solvent or mixture, acetone): 5.7 to 14 mg/mL
solubility ([3]; Water): < 0.99 mg/mL

solubility ([4]; 1,4-Dioxane): < 50 mg/mL
solubility ([4]; 1-Butanol): < 50 mg/mL
solubility ([4]; 1-Methoxy-2-propanol): > 80 mg/mL
solubility ([4]; 1-propanol): < 50 mg/mL
solubility ([4]; 2-Butanone): < 50 mg/mL
solubility ([4]; 2-Methoxyethyl ether): < 90 mg/mL
solubility ([4]; 2-methoxyethanol): > 93 mg/mL
solubility ([4]; 2-propanol with 20 vol % water, 2-propanol: 20 vol % Water): < 95 mg/mL
solubility ([4]; 2-propanol: 5 vol % Water): < 50 mg/mL
solubility ([4]; 2-propanol: 10 vol %): < 50 mg/mL
solubility ([4]; 4-Methyl-2-pentanone): < 50 mg/mL
solubility ([4]; Acetone: 5 vol % Water): < 50 mg/mL
solubility ([4]; Acetone: 10 vol % Water): < 99 mg/mL
solubility ([4]; Acetonitrile: 5 vol % Water): < 50 mg/mL
solubility ([4]; Acetonitrile: 10 vol %): < 50 mg/mL
solubility ([4]; Chlorobenzene): < 50 mg/mL
solubility ([4]; Chloroform): > 153 mg/mL
solubility ([4]; Cyclohexane): < 50 mg/mL
solubility ([4]; Cyclohexanone): > 87 mg/mL
solubility ([4]; DMF): > 93 mg/mL
solubility ([4]; Dimethyl Carbonate): < 50 mg/mL
solubility ([4]; Dioxane: 10 vol % Water): > 93 mg/mL
solubility ([4]; EtOAc:pentane (1:1)): < 50 mg/mL
solubility ([4]; EtOAc:pentane (1:4)): < 50 mg/mL
solubility ([4]; EtOAc:pentane (1:10)): < 50 mg/mL
solubility ([4]; EtOH): < 72 mg/mL
solubility ([4]; Isopropyl acetate): < 50 mg/mL
solubility ([4]; Isopropyl ether): < 50 mg/mL
solubility ([4]; MeOAc): < 50 mg/mL
solubility ([4]; Methanol: 5 vol % Water): > 177 mg/mL
solubility ([4]; Methanol: 10 vol % Water): > 85 mg/mL
solubility ([4]; Pentane): < 50 mg/mL
solubility ([4]; THF: 5 vol % Water): > 85 mg/mL
solubility ([4]; THF: 10 vol % Water): > 107 mg/mL
solubility ([4]; acetone with 20 vol % water, Acetone: 20 vol % Water): < 96 mg/mL
solubility ([4]; nitromethane): < 50 mg/mL
SMILES: COc1ccc2c(O[C@@H]3C[C@H]4C(=O)N[C@]5(C(=O)NS(=O)(=O)C6CC6)C[C@H]5/C=C\CCCCC[C@H](CC(=O)N5CCCC(F)(F)C5)C(=O)N4C3)cc(-c3nc(C(C)C)cs3)nc2c1C [ACH-0142684]

SMILES: COc1ccc2c(O[C@@H]3C[C@H]4C(=O)N[C@]5(C(=O)[N-]S(=O)(=O)C6CC6)C[C@H]5/C=C\CCCCC[C@H](CC(=O)N5CCCC(F)(F)C5)C(=O)N4C3)cc(-c3nc(C(C)C)cs3)nc2c1C.[Na+] [Polymorph A]
Form stability on drying (PXRD of dried sample) ([1]; vacuum oven at 55° C. overnight, small flow of nitrogen): does not show any change in form or crystallinity
Relative stability of Polymorphs A and G (PXRD of isolated solids) [5]: the more stable form at room temperature
Form stability indicated by crystallization screen outcome [6]: the most stable form at the crystallization conditions studied; also recorded: stable form at/around room temperature
